Laboratory results reported in patent US20220397565A1, “METHODS OF SCREENING AND RELATED SYSTEMS” (RECURSION PHARMACEUTICALS, INC., priority 2021, published 2022).

Legend:
[1] = test system: Cells transduced with BacMam BRAF V600E; assay: Morphological profiling of BacMam BRAF V600E transduced cells treated with test agents; format: cell-based; settings: for side effect score versus disease score (position relative to the funnel, FIG. 10): cells expressing BRAF V600E, varying concentrations of compound, dot plot FIG. 10; for quantified reversal of the disease state (rescue of BRAF V600E overexpression phenotype): morphological profile of treated vs not treated BRAF V600E-transduced cells, 18 compounds tested
Text: (§1) Morphological profiles may be generated by various methods. In an embodiment, morphologically profiling cells may comprise imaging relevant cells or tracking certain parameters or features of the cells. The tracking may be of staining intensities in one or more imaging channels, correlations between imaging channels, textural patterns, size and shape of cellular structures, geometric relationships between intracellular structures, geometric relationships between adjacent cells, or combinations thereof. Cellular features, such as 100 or more cellular features, 500 or more cellular features, or 1000 or more cellular features, may be tracked when morphologically profiling cells. Among various methods of determining these cellular features, they may be obtained by imaging cells with or without fluorescent or non-fluorescent stains or combinations thereof, and numeric features determined by using deep learning embeddings, hand-tuned feature extraction, or combinations thereof. Other than tracking the cellular features, the morphological profiling may include reducing the output of the cellular features using statistical modeling such as principal component analysis.
Pathogenic and non-pathogenic transduced cells were cultured then morphologically profiled. A heatmap of cosine similarities between all pairs of groups (or reagents), origined by method one were generated (FIG. 7). Shown are cells transduced with BacMam vectors having BRAF V600E, KRAS G12C, KRAS G12D, MFN1, MFN1T109A, CTNNB1B, EPAS1, SMO F460L, ALK, EGFR, and some of their nonsense counterparts. […] Cosine similarities between all pairs of feature vectors that were origin by method two in FIG. 7 (FIG. 8).
Cells transduced with BacMam BRAF V600E were treated with varying concentrations of 18 compounds which include dabrafenib and vemurafenib, which target BRAF, and ulixertinib and MEK162, which target downstream biology. […] The difference in features caused by transducing the cells with BRAF V600E was determined. The effect of compounds on those features was determined within the BRAF V600E-transduced cells and also the effects of compounds on features not related to transduction with BRAF V600E. […] The efficacy of test agents in reversing a disease state can be quantified. This is calculated based on morphological profiling of cells treated with a test agent compared to cells not treated with a test agent.

[2] = test system: EGFR-overexpressing cells; assay: Morphological profiling of BacMam EGFR transduced cells treated with test agents; format: cell-based; settings: cosine similarity, treated vs not-treated EGFR overexpressing cells, FIG. 9
Text: as §1

Cn1cnc2c(F)c(Nc3ccc(Br)cc3F)c(C(=O)NOCCO)cc21 [MEK162]
side effect score versus disease score (position relative to the funnel, FIG. 10) [1]: Separation from the funnel | quantified reversal of the disease state (rescue of BRAF V600E overexpression phenotype) [1]: some of the top test agents

CC(C)(C)c1nc(-c2cccc(NS(=O)(=O)c3c(F)cccc3F)c2F)c(-c2ccnc(N)n2)s1 [dabrafenib]
side effect score versus disease score (position relative to the funnel, FIG. 10) [1]: Separation from the funnel | quantified reversal of the disease state (rescue of BRAF V600E overexpression phenotype) [1]: some of the top test agents

COc1cc2ncnc(Nc3ccc(F)c(Cl)c3)c2cc1NC(=O)/C=C/CN1CCCCC1 [dacomitinib]
quantification of the reversal of the disease state (modulation of phenotypes of EGFR overexpressing cells) [2]: top two test agents

CC(C)Nc1cc(-c2c[nH]c(C(=O)N[C@H](CO)c3cccc(Cl)c3)c2)c(Cl)cn1 [ulixertinib]
side effect score versus disease score (position relative to the funnel, FIG. 10) [1]: Separation from the funnel | quantified reversal of the disease state (rescue of BRAF V600E overexpression phenotype) [1]: some of the top test agents
